Results on 88 compounds are retold here after a melting point compilation (Tetko et al.; mined from patent text by program, amines drawn as free bases though some values may be those of a salt).

The structures appear in SMILES notation. Residues, ends and D or L forms follow the SMILES beside them. *: point of attachment. Cbz = O=C(OCc1ccccc1)*; Bn = c1ccc(C*)cc1

As usually defined, the melting point is the temperature of the solid-liquid transition. For the compound `CCOC(=O)CNC(=O)[C@@H]1CS[C@H](c2ccccc2O)N1C(=O)CCSC(=O)c1ccccc1`, the melting point was 134 to 135 °C.
To `Cc1cccc(-c2nscc2C(=O)O)c1` belongs 144 to 146 °C; to `COc1ccc(C(=O)NNC(=O)c2ccc([N+](=O)[O-])cc2)cc1`, 256 to 258 °C.
The same measure for `COc1cc(N)c(Cl)cc1C(=O)NCC1CCN(CCCCCC(=O)c2ccc(C)cc2C)CC1`: 106 to 110 °C; for `Cc1coc(NC(=O)CCCCl)n1`: 98 °C; for `Cc1ccc(CC2CCN(C(=O)C(=O)Nc3ccc4c(c3)OCC(=O)N4)CC2)cc1`: 228 to 231 °C.
In the case of `Cc1nc(NC(=O)NC(=O)c2c(F)cccc2F)ccc1-c1ccccc1`, the melting point fell in the range of 206 to 208 °C.
Turning to `Nc1cc(=O)[nH]c(=O)n1Cc1ccncc1`, the melting point was in the range of 163 to 168 °C.
In the case of `CN(C)CCOC1=C(c2ccccc2)CN(Cc2ccco2)C1=O`, the melting point is 145 to 148 °C.
To `CCOC(=O)C(=CNc1ccn(-c2ccccc2)n1)C(=O)OCC` belongs 81 to 82 °C; to `COC(=O)c1[nH]c2ncccc2c1-c1ccc(N)cc1`, 236 °C.
On to `CCCCCn1c2ccccc2c2cc(C(=O)NCC(C)(C)C)ncc21`, for which the melting point fell in the range of 91 to 92 °C.
To `COc1ccc(Nc2ccc(Nc3ncnc4cc(-c5ccc(OC)nc5)sc34)cc2)cc1` belongs 149 to 159 °C; to `c1ccc(OCCSCc2nnc(-c3ccc(OCc4cccnc4)cc3)o2)cc1`, 111 to 112 °C.
As for `Cc1cc(SC(C)C)c(NC(=O)CCCCCSc2nc3ccccc3s2)c(SC(C)C)n1`, the melting point fell in the range of 84 to 86 °C.
As for `Cc1cc(C(=O)N(C)C)ccc1-c1ccc(C(=O)O)cc1`, the melting point lay within 190 to 192 °C.
The same measure for `CN(C)CCc1ccc(O)c2nc[nH]c12`: 245 to 252 °C; for `COC(=O)Nc1nc2cc(C(c3ccc(F)cc3)n3cncn3)ccc2[nH]1` (stereo not drawn): 250 °C.
Consider `COc1ccc(Cn2cc[nH]c2=S)cc1F`, for which the melting point lay in the range of 156 to 157 °C.
To `COc1cc2c(cc1OC)CN(c1c(C)c(C)c3c(c1C)C(c1ccccc1)C(C)(C)O3)C2` (stereo not drawn) belongs 154 to 157 °C; to `CC(=O)Nc1ccc(SC2OC(CO)C(O)C(O)C2O)cc1` (stereo not drawn), 160 to 163 °C.
Regarding `CCOC(=O)C1=C(N)OC(C)=C(C(=O)OC)C1c1cc([N+](=O)[O-])ccc1Cl` (stereo not drawn), the melting point stood at 159 °C.
Consider `COc1ccc(CN2CCN(c3nc(C)c(C(N)=O)s3)C2=O)cc1F`, for which the melting point is 182 to 184 °C.
As for `O=C(NCC12CC3CC(CC(C3)C1)C2)c1c(Cl)ccc2nc(N3CCC(C(=O)O)(c4ccccc4)CC3)ccc12`, the melting point fell in the range of 235 to 237 °C.
As to `COc1ccc(S(=O)(=O)n2c(Cl)nc3c2c(=O)n(CC2CC2)c(=O)n3CC2CC2)cc1`, the melting point is 118 °C.
`Cc1ccc(S(=O)(=O)Oc2ccc(S(=O)(=O)c3ccoc3C(C)C)cc2)cc1` registered a melting point of 94 °C.
The same measure for `CC1c2cccc3c2N(CC3)c2ccccc2N1C(=O)CCN(C)C` (stereo not drawn): 138 to 142 °C.
`O=c1n(CCO)c2ccccc2n1-c1ccc(F)cc1` had a melting point of 124 to 126 °C.
With `CCCCCCCCCCc1nnn(C(C(=O)O)c2ccccc2)n1` (stereo not drawn), the melting point lay in the range of 62 to 64 °C.
The same measure for `CCNC(=O)C(COCc1ccccc1)NC(=O)C(Cc1ccc(OCc2ccccc2)cc1)NC(=O)C(Cc1c[nH]cn1)NC(=O)OCc1ccccc1` (stereo not drawn) (Cbz-His-Tyr(Bn)-Ser(Bn)-NHEt; configuration not given here): 182 to 188 °C; for `O=C(c1ccco1)c1cnn2c(-c3cccc(N4CCCCC4=O)c3)ccnc12`: 159 to 160 °C; for `NC(=O)NN=C(CCl)COc1ccc(Cl)cn1`: 115 to 117 °C.
The same measure for `CN(CCCNc1ncc(Cc2ccc(O)cc2)c(=O)[nH]1)c1ccccn1`: 109 to 111 °C; for `Cc1oc(-c2ccccc2)nc1COc1cccc(CCCC2OC(=O)NC2=O)c1` (stereo not drawn): 134 to 135 °C; for `Cc1c(-c2ccc(OCc3ccccc3)cc2)n(Cc2ccc(OCCN3CCCCCC3)cc2)c2ccc(OCc3ccccc3)cc12`: 106 to 107 °C.
To `C1=CC2=c3ccccc3=NC2=C1` belongs 143 to 145 °C; to `O=C1CCCN1S(=O)(=O)c1ccc2ccccc2c1`, 118 to 120 °C; to `COc1cc(/C=C/C(=O)CC(=O)C2(C)CC2)ccc1O`, 78 to 80 °C.
Consider `CC(C)(CO)c1cc(Cl)nnc1Cl`, for which the melting point lay within 133 to 136 °C.
To `Cc1c(C)c2c(c(C)c1NC(=O)CCCO)C(c1ccc(C(C)C)cc1)CO2` (stereo not drawn) belongs 156 to 157 °C; to `O=C(Nc1cc[nH]c(=O)n1)OCc1ccccc1`, over 250 °C.
Regarding `O=[N+]([O-])c1c(F)cc(Cl)c2nc(Cl)sc12`, the melting point lay in the range of 110 to 112 °C.
In turn, `CC12C=CC(C1)C(C(N)=O)C2(C(N)=O)c1cccc(Br)c1` (stereo not drawn) returned a melting point of 111 to 113 °C.
To `O=c1oc(-c2ccccc2)cc(O)c1SCC1CC1` belongs 136 to 137 °C; to `O=C1CCc2cc(O)ccc21`, 185 to 187 °C; to `Cc1cccc(NC(=O)NC2N=C(C3CCCCC3)c3cccc(C)c3N(CC(=O)N3CCCCCCC3)C2=O)c1` (stereo not drawn), 154 to 155 °C.
To `COC(=O)COc1c(I)cc(-c2c3ccccc3cc3sc4ccccc4c23)cc1I` belongs 203 to 205 °C; to `CCOc1cc([N+](=O)[O-])ccc1NC(C)=O`, 164 to 165 °C.
`CCOC(=O)c1cn(CC)c2ncncc2c1=O`: the melting point worked out at 136 °C.
To `Cc1ccc2c(c1)C(=O)N(Nc1ccccc1)C2=O` belongs 168 to 170 °C; to `CCCCC1(O)C2=NCC3(CCCCC3)CN2c2ccccc21` (stereo not drawn), 192 to 195 °C; to `CC(C)CNC(=O)c1ccc(C2(F)CC2c2ccc(Br)c(Br)c2)cc1` (stereo not drawn), 132 °C.
The same measure for `Cc1ccc(S(=O)(=O)N2CCC[C@H](CBr)c3ccccc32)cc1`: 110 to 111 °C; for `CCCCn1c(=O)c2nn(S(=O)(=O)CCCCl)cc2n(CCCC)c1=O`: 67 to 68 °C.
In the case of `COC1=CC(=O)C(=O)C=C1NCCCl`, the melting point was in the range of 150 to 152 °C.
Take `CC(C)(C)OC(=O)N1CCC(=Cc2ccc3ccccc3n2)CC1`: the melting point was 72 to 73 °C.
Compound `CCOC(=O)C1=C(C)N=C(N)C(C)(C(=O)OCC)C1c1ccccc1` (stereo not drawn) displayed a melting point of 139 °C.
Compound `Cc1c(CC(=O)N(C)O)c2cc(OCc3nc4ccccc4s3)ccc2n1Cc1ccc(Cl)cc1` gave a melting point of 174 to 175 °C.
In the case of `CC12CCC3C(CCC4CC(CC(=O)O)CCC43C)C1CCC2CC=O` (stereo not drawn), the melting point fell in the range of 189 to 192 °C.
`Nc1ccc(N)c(C(=O)c2ccccc2Cl)c1`: the melting point lay within 30 to 40 °C.
To `O=C(Nc1ccccc1)n1nc(-c2ccccc2)cc1Sc1ccccc1` belongs 138 to 140 °C; to `Cc1cc(-c2cccc(NC(=O)N[C@@H]3c4cc(C#N)ccc4OC(C)(C)[C@H]3O)c2)on1`, 140 to 148 °C; to `CC(=Cc1ccc(-c2noc3cc(Cl)ccc23)cc1)[N+](=O)[O-]`, 160 to 162 °C.
To `CC(=O)Oc1ccc(Oc2cccc(C(=O)O)c2)cc1` belongs 141 to 143 °C; to `CC(=O)NC[C@H]1CN(c2ccc(-n3cnnc3S)c(F)c2)C(=O)O1`, 269 to 271 °C; to `CCN(C)C(=O)NC(=O)Nc1ccccc1`, 157 to 159 °C.
To `CCOC(=O)NCC(=O)c1ccc(O)cc1` belongs 137 to 140 °C; to `CNc1nc(-c2ccccc2)c(-c2nc3ccccc3c(=O)n2-c2ccc(OC)cc2)s1`, 235 to 236 °C; to `Cn1c(COc2ccc(C=O)cc2)nc2cccnc21`, 124 to 125 °C.
In turn, `COC(=O)Cc1ccc(C#N)cc1` showed a melting point of 40 to 41 °C.
The same measure for `C#CCn1c(-c2ccc(OC)cc2)c([N+](=O)[O-])c2ccc(OC)cc2c1=O`: 162 to 164 °C; for `O=S(=O)(Nc1ccc2c(OCc3nc(-c4ccc(F)cc4)sc3Br)cccc2c1)C(F)(F)F`: 139 to 140 °C; for `CCc1ccc(C2=NC(C)(C(C)C)C(=O)N2CC=CC(=O)O)nc1` (stereo not drawn): 53 to 58 °C.
To `Cc1ccc(=O)n(-c2cccc(C(F)(F)F)c2)c1` belongs 95 °C; to `Cc1ccc(S(=O)(=O)CC(=O)NN=C2C(=O)Nc3ccc(I)cc32)cc1`, 257 °C; to `COC(=O)Cc1ccc(OCc2ccc(-c3ccccc3)cc2)cc1`, 115 to 116 °C.
To `CCCCc1nn2c(C)cccc2c1Cc1ccc(Br)cc1` belongs 54 °C.
The compound `Nc1ncc(-c2cnc3ccc(-c4ccc(OCC5(CNC(=O)C6CC6)COC5)cc4)nn23)cc1C(F)(F)F` gave a melting point of 223 to 225 °C.
The same measure for `CN(N)c1ncnc2c1cnn2C`: 213 to 215 °C; for `CCN(CC)C(=O)CCCOc1ccc(Oc2ccccc2)cc1`: 73 to 74 °C.
Regarding `CO[C@@H](C(=O)N[C@H]1CC[C@@H](OC(=O)C=Cc2ccccc2)CNC1=O)[C@H](O)[C@@H](O)[C@H](O)/C=C/C(C)(C)C`, the melting point is 83 to 85 °C.
The compound `CC(=O)NC(=O)CSC(c1ccccc1)(c1ccccc1)c1ccccc1` had a melting point of 147 to 149 °C.
The same measure for `CCN(CC)CCOc1ccc(-c2nnc(CSCCOc3ccccc3)o2)cc1`: 32 to 35 °C; for `Cc1oc(-c2ccccc2)nc1CCOc1ccc(CCC#N)cn1`: 105 to 106 °C; for `COc1ccc(-c2cc3cc(F)c(F)cc3[nH]2)cc1NC(=S)NCCO`: 191 to 193 °C.
Consider `O=[N+]([O-])c1cc(C(O)CN2CCN(C(c3ccccc3)c3ccccc3)CC2)ccc1Cl` (stereo not drawn), for which the melting point came to 163 °C.
The same measure for `CC(C)c1ccc(N(Cc2cnn(C(C)C)c2)C(=O)C2CCCc3c(O)cccc32)cc1` (stereo not drawn): 185 °C.
The same measure for `C[C@@H](NC(=O)c1[nH]c2ccc(Cl)cc2c1S(=O)(=O)c1ccccc1)c1ccccc1`: 149 °C.
